How the values were obtained:
[1] = test system: rumen fluid supernatant amylases; assay: Rumen bacterial amylase assay, protocol 1 (Sigma amylase kit 577); type: biochemical, rumen bacteria, Hereford×Friesian calves; conditions: for IC50: rumen fluid amylase screen using Sigma kit 577
Description: Rumen Bacterial Amylase Assay—Protocol 1
The enzymatic reactions involved in the assay are as follows:
5 ET-G7PNP→(α-amylase)→2 ET-G5+2 G2PNP+2 ET-G4+2 G3PNP+ET-G3+G4-PNP2 G2PNP+2 G3 PNP→(α-glucosidase)→4 PNP +10 glucose
α-Amylase hydrolyses 4,6-ethylidene-G7-PNP (ET-G7 PNP) to G2, G3 and G4 PNP fragments. α-Glucosidase (α-1,4-glucan glucohydrolase EC 3.2.1.3) hydrolyses G2PNP and G3PNP to yield p-nitrophenol and glucose. Five moles of substrate (ET-G7PNP) is hydrolysed to yield 4 moles of p-nitrophenol p-Nitrophenol absorbs light as 405 nm, and following a two minute lag period the rate of increase in absorbance at 405 nm is directly proportional to α-amylase activity in the well.
Rumen fluid was collected from 4-month-old Hereford×Friesian calves (125–135 kg, supplied by Cwmnant Calves Ltd. Cwmnant. Tregaron. Ceredigion) fed on diet GH 313. The rumen fluid was collected from slaughtered calves into pre-warmed vacuum flasks, as soon as possible after euthanasia. It was then filtered through a double layer of absorbent gauze (Absorbent gauze BP, GAUZ 4 from Robert Bailey plc, Stockport) to remove hay and feed particles. The liquid was centrifuged at a relative centrifugal force of 23,300 for 60 minutes, and the supernatant decanted, avoiding contamination from the loose top layer of the pellet by careful pouring. The supernatant was then aliquoted into 50 ml plastic tubes and frozen at […]. When required for use in an assay the rumen fluid supernatant was thawed by standing the tubes in cold water. Test compounds or controls were dispensed into the 96-well assay plate at 4 μl/well. 100 μl per well of Sigma amylase reagent 577 (made up to half the volume described in the instructions (i.e. 10 ml for a 577-20 vial)) was then added to each well, followed by 100 μl per well of rumen fluid supernatant. A T=0 reading at 405 nm was taken at this stage using an Anthos plate reader. The plate was then incubated at room temperature or 37° C. until an optical density window of approximately 1.000U was seen (typically one hour at 37° C. or three hours at room temperature). A second reading was taken at 405 nm, and the first reading subtracted from it. Active compounds cause a reduction in the optical density readings when compared to the control without the agent being tested.

[2] = test system: bacterial glucosidase activity from bovine rumen fluid cell suspension; assay: Rumen fluid glucosidase assay; type: biochemical, bovine rumen bacteria; conditions: rumen fluid glucosidase screen, maltose substrate
Protocol: Rumen Fluid Glucosidase Assay Protocol This assay is used to determine IC50 values for inhibitors of bacterial glucosidase activity from bovine rumen fluid cell suspension (RFCS) using a colorimetric assay. The assay measures conversion of maltose into glucose. Rumen fluid cells are incubated with maltose in the presence of inhibitors, and the amount of glucose produced is assessed using a red colourimetric endpoint. The higher the level of inhibition the lower the glucose produced and the less red colour produced. The plates are read at 450 nm. Main reaction: • Maltose+glucosidase→glucose Glucose assay • Glucose+ATP→[…] and ADP (Hexokinase and Mg^2+) • […] and NADP→6-phosphogluconate (6-PG) and NADPH • NADPH+phenazine methosulfate ([…] (iodonitrotetrazolium chloride)→[…] is deep red coloured. […] The rumen fluid was collected into pre-warmed vacuum flasks. It was then filtered through a double layer of absorbent gauze (Absorbent gauze BP, GAUZ 4 from Robert Bailey plc, Stockport) to remove hay and feed particles. The liquid was centrifuged at a relative centrifugal force of 650 for 15 minutes to remove food particles and protozoa. The supernatant was decanted into fresh tubes and centrifuged at a relative centrifugal force of 23,300 for 60 minutes. The supernatant and the loose top layer of the pellet were discarded. The pellet was resuspended in PBS at 1:8 of original volume i.e. 50 ml of PBS for the pellet from 400 ml of rumen fluid, and frozen at -20° C. When required for use the cells were thawed by standing the tube in cold water, and then diluted to […] of cells/well (45 μl/ml). Test compounds or controls were dispensed into the 96-well assay plate at 2 μl/well, followed by 50 μl per well of 10 mM maltose and 50 μl/well of rumen fluid cell suspension. The plate was incubated at 37° C. for 1 hour. Sigma glucose detection kit […] was reconstituted by addition of 17 ml of Millipore water and 4 ml of colour reagent to each vial. 100 μl of this solution was added per well and the plate returned to the 37° C. incubator for 45 minutes. The plate was then read at 450 nm. Active compounds cause a reduction in the optical density readings when compared to the no-inhibitor control wells.

[3] = target: rumen fluid supernatant amylases; assay: Rumen bacterial amylase assay, protocol 2 (amylose azure); conditions: read-out: Average IC50, rumen fluid amylase screen
[4] = test system: rumen fluid fermentation (RUSITEC chronic acidosis model); assay: RUSITEC rumen simulation, chronic acidosis model: Example 8 and acarbose; type: cell-based, cow; conditions: for proportional increase in butyrate production: treatment period vs control period (no treatment: 1%); for change in total VFA production: vs preceding control period (no treatment: −11%)
Protocol: RUSITEC Result using Example 8 and Acarbose
Daily maintenance procedures as previously described for Acarbose.
Rumen fluid donor cow—Fed GH313Pellets plus barley straw.
Daily Feed—30 g GH313 pellets plus 2.5 g chopped barley straw.
Acarbose: 1 tablet added to each bag to give 100 mg/vessel/d
Example 8: Eight×57 mg pre-weighed samples stored in fridge in […]. On the day before the feed bags were to be placed in RUSITEC, a 57 mg sample was dissolved in 2.28 ml buffer (25 mg/ml). 0.21 ml of this solution was added to 1.9 ml buffer to give a 2.5 mg/ml solution. 1 ml of each solution was added to a prepared feed bag to give 25 and 2.5 mg/vessel/d. and dried overnight at room temperature.

## CC1OC(OC2C(CO)OC(OC3C(CO)OC(OC4C(CO)OC(OC5C(CO)OC(O)C(O)C5O)C(O)C4O)C(O)C3O)C(O)C2O)C(O)C(O)C1NC1C=C(CO)C(O)C(O)C1O (centres unmarked) [Example 7]
[1]
  effect in the amylase screen: inhibiting effect
[2]
  IC50: 6.38 µM

## C[C@H]1O[C@H](O[C@@H]2[C@H](O)[C@H](O)[C@@H](O[C@@H]3[C@H](O)[C@@H](O)[C@@H](O[C@@H]4[C@H](O)[C@H](O)[C@@H](O[C@H]5O[C@@H](CO)[C@H](O)[C@H](O)[C@H]5O)O[C@@H]4CO)O[C@@H]3CO)O[C@H]2CO)[C@H](O)[C@@H](O)[C@@H]1N[C@H]1C=C(CO)[C@@H](O[C@H]2O[C@H](CO)[C@H](O[C@H]3O[C@H](C)[C@@H](N[C@H]4C=C(CO)[C@@H](O)[C@H](O)[C@H]4O)[C@H](O)[C@H]3O)[C@H](O)[C@H]2O)[C@H](O)[C@H]1O (stereo in doubt) [Trestatin A]
[1]
  IC50: 170 nM
[2]
  IC50: 33.6 µM
[3]
  IC50: 790 nM

## CC1OC(OC2C(CO)OC(OC3C(CO)=CC(NC4C(C)OC(OC5C(CO)OC(OC6C(CO)OC(OC7C(CO)OC(O)C(O)C7O)C(O)C6O)C(O)C5O)C(O)C4O)C(O)C3O)C(O)C2O)C(O)C(O)C1NC1C=C(CO)C(O)C(O)C1O (centres unmarked) [Example V-1532]
[1]
  IC50: 570 nM
[2]
  IC50: 65.5 µM
[3]
  IC50: 2070 nM

## CC1OC(OC2C(CO)OC(OC3C(CO)=CC(NC4C(C)OC(OC5C(CO)OC(OC6C(CO)OC(OC7C(CO)OC(OC8C(CO)OC(O)C(O)C8O)C(O)C7O)C(O)C6O)C(O)C5O)C(O)C4O)C(O)C3O)C(O)C2O)C(O)C(O)C1NC1C=C(CO)C(O)C(O)C1O (centres unmarked) [Example 8]
[1]
  IC50: 440 nM
[2]
  IC50: 13.1 µM
[4]; 0.02 mM
  increase in mean daily pH: 0.3 units
[4]; 2.5 mg per vessel per day
  proportional increase in butyrate production: 18%
  change in total VFA production: −1%
[4]; 25 mg per vessel per day
  proportional increase in butyrate production: 20%
  change in total VFA production: −8%
[3]
  IC50: 9450 nM

## C[C@H]1O[C@H](O[C@@H]2[C@H](O)[C@@H](O)[C@@H](O[C@@H]3[C@H](O)[C@@H](O)[C@@H](O[C@@H]4[C@H](O)[C@H](O)[C@@H](O[C@H]5O[C@H](CO)[C@H](O)[C@H](O)[C@H]5O)O[C@@H]4CO)O[C@@H]3CO)O[C@H]2CO)[C@@H](O)[C@@H](O)[C@@H]1N[C@@H]1C=C(CO)[C@@H](O)[C@@H](O)[C@@H]1O (stereo in doubt) [Trestatin B]
[1]
  IC50: 2890 nM
[2]
  IC50: 4.1 µM

## C[C@H]1O[C@H](O[C@H]2[C@H](O)[C@@H](O)[C@@H](O[C@H]3[C@H](O)[C@@H](O)[C@@H](O[C@H]4[C@H](O)[C@@H](O)[C@@H](O[C@H]5O[C@H](CO)[C@@H](O)[C@H](O)[C@H]5O)O[C@@H]4CO)O[C@@H]3CO)O[C@@H]2CO)[C@H](O)[C@@H](O)[C@@H]1N[C@H]1C=C(CO)[C@@H](O[C@H]2O[C@H](CO)[C@@H](O[C@H]3O[C@H](C)[C@@H](NC4C=C(CO)[C@@H](O[C@H]5O[C@H](CO)[C@@H](O[C@H]6O[C@H](C)[C@@H](NC7C=C(CO)[C@@H](O)[C@H](O)[C@H]7O)[C@H](O)[C@H]6O)[C@H](O)[C@H]5O)[C@H](O)[C@H]4O)[C@H](O)[C@H]3O)[C@H](O)[C@H]2O)[C@H](O)[C@H]1O (some centres unmarked) [Trestatin C]
[1]
  IC50: 90 nM
[2]
  IC50: 148 µM

Reference: patent US7271158B2, “Treatment of rumen acidosis with α-amylase inhibitors” (Pfizer Inc., priority 2000, dated 2007)
